Source: PMC12311729, “Probing the Mechanism of L‑DOPA 2,3-Dioxygenase Using Synthetic Derivatives of 3,4-Dihydroxyhydrocinnamic Acid” (ACS Omega, 2025)
Entries after “also recorded” stand apart in the source; their conditions may differ.

Tests used:
[1] = Cyclic voltammetry (redox potentials on a GCE); assay type: physicochemical; conditions: for (E p)a Oxidation / (E p)c Reduction / E1/2 / Ipa/Ipc / ΔE p: GCE (d = 2 mm); for E1/2 (mV) at pH 7.4 relative to L-DOPA x 100: percentage of the value for L-DOPA
Text: Reduction and oxidation potentials were experimentally performed by cyclic voltammetry (CV) at biological pH 7.4, as previously described. All samples were run on a CH Instruments 600E Potentiostat in a one-compartment cell equipped with a three-electrode system arrangement. The three-electrode system included a saturated calomel electrode as the reference electrode, a platinum wire as the auxiliary electrode, and a glassy carbon electrode (GCE, d = 2 mm) as the working electrode. The GCE was polished between each sample scan with an aqueous slurry of alumina powder on a microcloth pad. The electrodes were rinsed with distilled water prior to the next scan. All scans were conducted under nitrogen for oxygen displacement and at room temperature (rt, 25 ± 1 °C). All samples were prepared as close to the scan as possible (approximately 2 min each). Each sample (5 mL) contained 0.1 mM catecholic substrate and 1 μM DMSO in 0.1 M phosphate buffer at a pH of 7.4 or 6.0. […] The cyclic voltammograms for the compounds at both pH 6.0 and 7.4 are available in Figures S40–S51.

[2] = Determination of pKa values by spectrophotometric titration; conditions: for pK a value: first catecholic deprotonation, determined spectroscopically from pH 3 to 12.5; for Catecholic pKa value relative to L-DOPA x 100: percentage of the value for L-DOPA
Protocol: A buffer system utilizing five different buffers was prepared to cover the pH range of 3.0 to 12.50. A Thermo Scientific Orion Star A211 pH meter was used to measure and determine the pH of each buffer. The pH meter was calibrated using three- and four-point calibration with pH values of 4.00, 7.01, and 10.01 and 4.00, 7.01, 10.01, and 12.00, respectively.
The buffer systems were prepared as previously described and included: NaOAc/HOAc buffers (C = 0.1 M; I = 0.1 M) were used to cover the pH range of 3.0 to 5.50. KH2PO4/K2HPO4 buffers (C = 0.05 M; I = 0.1 M) were used to cover the pH range of 6.00 to 8.00. CHES buffers (C = 0.05 M; I = 0.1 M) were used to cover the pH range of 8.50 to 10.50. Na2HPO4/Na3PO4 buffers (C = 0.05 M; I = 0.1 M) were used to cover the pH range of 11.00 to 12.00. KCl buffers (C = 0.1 M; I = 0.1 M) were used to cover the pH range of 12.00 to 12.50.
The absorbance spectra of the compounds were determined at each pH as previously described. Briefly, a stock solution was prepared for each compound by weighing 2 mg of the compound using a high-precision analytical balance. Each compound was then dissolved in DMSO at a concentration of 10 mM. A UV-transparent 96-well microplate (Corning clear acrylic 96-well UV plate with a UV-transparent flat bottom) was loaded with 196 μL of buffer solution and 4 μL of the catechol stock in each well to get a final concentration of 200 μM. DMSO (4 μL) was added to 196 μL of the appropriate buffer to produce a blank solution for each buffer.
The 96-well plate was loaded into the microplate reader and incubated at 30 °C and shaken for 10 min before the reading. Absorbance readings were completed by using a Synergy HTX 15032517 microplate reader. Each well was read at wavelengths from 210 to 600 nm with 2-nm increments for each scan over a duration of 60 min.
The data were analyzed as previously described. Raw UV-spectra scans were exported to the Excel program. They were first processed by subtracting the reading of the blank solutions from the reading of each compound at the corresponding wavelengths. […] Finally, the spectral difference between the pH 3.0 buffer and the spectra at all other pH values was plotted. Additionally, the spectral difference between the pH 4.0 buffer and the spectra at all other higher pH values was plotted. The wavelengths for the maximum positive and negative absorbance were determined by using the graphs of the spectral difference plots, both for the pH 3.0 and pH 4.0 spectral difference plots. The absolute maximum positive and total absorbance differences at these chosen wavelengths were plotted against the pH of each buffer. The data were imported into the Origin 6.0 program, and the pK a values were determined with a nonlinear regression using eq : 1 Absorbancetotal=εHA−εA−[10^(pH−pKa)]/1+10^(pH−pKa)×[St]
εHA is the extinction coefficients of the acid form of the compound, and εA ^– is the extinction coefficient of the base form of the compound (i.e., the minima and maxima of the absorbance difference curve, respectively), and [S t] is the total compound concentration.

[3] = molecular target: L-DOPA 2,3-dioxygenase from S. hygroscopicus jingganensis (ShjDDO) (Streptomyces hygroscopicus, UniProt H2JL11); test: UV-visible steady-state assay of L-DOPA 2,3-dioxygenase (ShjDDO); assay type: biochemical; conditions: for kcat at 22 °C and 100% O2 saturation / kSP,O2 × 10^2 at 22 °C / kSP catechol × 10^2 at 22 °C: S. hygroscopicus jingganensis enzyme; for kcat at 22 °C and 100% O2 saturation: pH 7.5; for kSP,O2 × 10^2 at 22 °C / kSP catechol × 10^2 at 22 °C: values are kSP × 10^2; for kSP catechol × 10^2 at 22 °C: kSP = kcat/KM; for activity / turnover as substrate: ShjDDO, aerobic reaction observed by UV–visible spectroscopy; for kSP, O2 (μM^-1 min^-1) at pH 7.5 relative to L-DOPA x 100 for ShjDDO: percentage of the value for L-DOPA
Chain of L-DOPA 2,3-dioxygenase from S. hygroscopicus jingganensis (ShjDDO) (H2JL11 1-162): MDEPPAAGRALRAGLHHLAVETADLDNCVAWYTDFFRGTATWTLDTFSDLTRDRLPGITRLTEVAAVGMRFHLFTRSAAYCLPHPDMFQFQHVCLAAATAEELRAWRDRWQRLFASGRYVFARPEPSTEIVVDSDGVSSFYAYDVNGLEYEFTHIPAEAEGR
Protocol: (§1) Purified, reconstituted L-DOPA 2,3-dioxygenases were assessed for activity by monitoring the cleavage of catecholic substrates using UV–visible spectroscopy. 3,4-Dihydroxyhydrocinnamic acid (DHHCA, 3) was purchased from Sigma-Aldrich. 6-CyanoDHHCA (5) and 6-bromoDHHCA (4) were synthesized as described above.
(§2) Molecular oxygen (AirGas) was bubbled directly into the reaction buffer through a glass-bonded silica gas diffuser (Bubblemac Industries, Inc.) or as a gas mixture blended with air (AirGas). Solutions were bubbled with oxygen for several minutes prior to use and for the duration of the experiment. To determine the K M for oxygen (i.e., K MO2), L-DOPA 2,3-dioxygenases (0.25–4.0 μM) were reacted with a saturating concentration of the catecholic substrate DHHCA/6-X-DHHCA derivatives (2–10× the K M sufficient to achieve k cat) and various oxygen concentrations (21–100% or 270–1300 μM at 22 °C). The concentration of oxygen was varied by changing the percentage of oxygen in the blend using a galvanic oxygen sensor and oxygen monitor (AirGas) and then bubbling solutions, as described above. Molecular oxygen percentages were converted to molar concentrations using a reference temperature of 22 °C. The reaction of L-DOPA 2,3-dioxygenases with DHHCA/6-X-DHHCA derivatives as a function of oxygen concentration was followed by the appearance of the steady-state cleavage product by using UV–visible spectroscopy.
(§3) The extinction coefficients for steady-state cleavage products of DHHCA and synthetic 6-X-DHHCA derivatives were determined by reacting various concentrations of DHHCA/6-X-DHHCA derivatives at 22 °C with a 10-fold stoichiometric excess of enzyme (quantified by Fe^II–see Reconstitution) in 50 mM HEPES buffer with 154 mM NaCl at pH 7.5, bubbled with 100% oxygen to a final concentration of 780–910 μM, depending on the volume of oxygenated buffer that comprised the reaction (60–70%). Substrate solutions were prepared from authentic synthetic standards using an analytical balance, and reactions were run to completion as assessed by the appearance of the steady-state product. The λmax and extinction coefficients of DHHCA, 6-cyanoDHHCA, and 6-bromoDHHCA were determined herein as ε380 = 40 740 ± 820 M^–1cm^–1, ε385 = 33 256 ± 484 M^–1cm^–1, and ε380 = 35 282 ± 1190 M^–1cm^–1, respectively (Figure S52).
(§4) Steady-state kinetic data were obtained through a UV–visible spectroscopic assay. Initial rates were obtained from the slopes of the linear regions of the progress curves and plotted versus substrate concentration to yield a hyperbola, which was analyzed using the Michaelis–Menten expression and nonlinear least-squares fitting (NLSF) with Origin 6.0 (Microcal). Two possible derivations of the Michaelis–Menten expression were used: 1) the traditional expression y = k cat × x/(K M + x), where y is Rate/E 0 or the rate of product formation (μM/min) divided by the starting enzyme concentration (μM), x is substrate concentration (μM) and k SP (also known as k cat × K M ^–1)–that is, the second-order rate constant of enzyme and substrate–is extracted from the fitted constants; or 2) the alternative derivation that extracts k SP and k cat directly from the fit: y = (k SP × x)/((1 + k SP × x)/k cat), and where y is Rate/E 0 or the rate of product formation (μM/min) divided by the starting enzyme concentration (μM), x is substrate concentration (μM), k SP is equivalent to k cat×K M ^–1, and K M is extracted from k cat/k cat×K M ^–1.

[4] = molecular target: L-DOPA 2,3-dioxygenase from S. lincolnensis (LmbB1) (Streptomyces lincolnensis, UniProt Q54354); test: UV-visible steady-state assay of L-DOPA 2,3-dioxygenase (LmbB1); assay type: biochemical; conditions: for activity / turnover as substrate: aerobic reaction observed by UV–visible spectroscopy; for kcat at 22 °C and 100% O2 saturation / kSP,O2 × 10^2 at 22 °C / kSP catechol × 10^2 at 22 °C: S. lincolnensis enzyme; for kcat at 22 °C and 100% O2 saturation: pH 7.5; for kSP,O2 × 10^2 at 22 °C / kSP catechol × 10^2 at 22 °C: values are kSP × 10^2; for kSP catechol × 10^2 at 22 °C: kSP = kcat/KM; for kSP, O2 (μM^-1 min^-1) at pH 7.5 relative to L-DOPA x 100 for LmbB1: percentage of the value for L-DOPA
Chain of L-DOPA 2,3-dioxygenase from S. lincolnensis (LmbB1) (Q54354 entry or part of it): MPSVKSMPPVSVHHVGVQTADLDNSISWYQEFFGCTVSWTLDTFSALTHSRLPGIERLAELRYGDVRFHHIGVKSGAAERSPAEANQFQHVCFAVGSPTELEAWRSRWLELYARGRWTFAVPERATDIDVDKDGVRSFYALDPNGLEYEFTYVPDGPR
Protocol: as §1, §2, §3, §4

[5] = test system: S. hygroscopicus jingganensis L-DOPA 2,3-dioxygenase (ShjDDO); test: Presteady state stopped-flow kinetic assay, modeled with KinTek Explorer; assay type: biochemical, Streptomyces hygroscopicus jingganensis; conditions: ratio k6/k7; presteady state with ShjDDO
Protocol: Reaction temperature was controlled at 14 ± 0.5 °C by a circulating water bath. […] Stock solutions of 6-[…] prepared in DMSO. […] ShjDDO was reconstituted with iron(II) sulfate heptahydrate, gel filtered into the reaction buffer, and loaded into the drive syringe. […] Fifteen to twenty progress curves from the same experimental conditions were averaged in the KinTek Stopped Flow software and exported to KinTek Explorer for modeling. Between experiments, the instrument drive syringes were cleaned with acid, base, and water; soaked in 1% Hellmanex detergent for 30 min at ∼30-35 °C; thoroughly rinsed with water; and stored in 10% ethanol. […] state kinetic data were analyzed by fitting to simulated mechanisms using the KinTek Explorer software (KinTek Corp, Austin, TX). KinTek Explorer simulates experimental results by using direct numerical integration of rate equations for the kinetic model and yields estimates for the rate constants of microscopic steps. […] state experiments were modeled using KinTek Explorer according to a defined reaction pathway, as described in the Results and Discussion and shown in Scheme . The extinction coefficients of the DHHCA and 6-[…] semialdehyde products were independently determined as described above and fixed during fitting. Some rates were fixed as either “fast” (i.e., 1 × 10^9) or very slow (1 × 10^-12, i.e., ∼0) as described in the text. The equilibrium represented by k 1 and k -1 was fixed at the ratio of substrate charge states as predicted by the experimentally determined pK a values (Table ) and the Henderson-Hasselbach equation. Extinction coefficients were fitted and/or fixed during fitting as described in the text and interpreted using the observable expression: […], where a is the extinction coefficient applied to ESQ, b is the independently experimentally determined extinction coefficient on P, and c is a y-axis offset. […] ESO2 is the ternary complex of enzyme, substrate, and oxygen. ESQ represents the putative semiquinone intermediate, a UV-absorbing species, and ESQ_X is the species formed from the nonproductive quenching of the semiquinone. […] EP is the enzyme-product complex, and P is the free semialdehyde product. P can then degrade nonenzymatically to the spectroscopically silent P_X. Errors on each fit were calculated from 2[…] at 0.83 Chi^2. The KinTek Explorer program FitSpace explores the uniqueness of a particular fit to the data by measuring the dependence of the sum square error (SSE) on each pair of parameters, while allowing all other parameters to vary in seeking the best fit. […]

[6] = design: method as in Biochemistry 2021, 60, 32, 2492–2507; conditions: similarly 6-substituted dopamine; ref Biochemistry 2021, 60, 32, 2492–2507; cited from earlier work
[7] = ShjDDO active site, ratio to DHHCA
[8] = LmbB1 active site, ratio to DHHCA

Row | SMILES | (E p)a Oxidation ([1]; pH 6.0) | (E p)c Reduction ([1]; pH 6.0) | E1/2 ([1]; pH 6.0) | Ipa/Ipc ([1]; pH 6.0) | ΔE p ([1]; pH 6.0) | (E p)a Oxidation ([1]; pH 7.4) | (E p)c Reduction ([1]; pH 7.4) | E1/2 ([1]; pH 7.4) | Ipa/Ipc ([1]; pH 7.4) | ΔE p ([1]; pH 7.4) | E1/2 (mV) at pH 7.4 relative to L-DOPA x 100 [1] | pK a value [2] | Catecholic pKa value relative to L-DOPA x 100 [2] | kcat at 22 °C and 100% O2 saturation [3] | kSP,O2 × 10^2 at 22 °C [3] | kSP catechol × 10^2 at 22 °C [3] | activity / turnover as substrate [3] | kSP, O2 (μM^-1 min^-1) at pH 7.5 relative to L-DOPA x 100 for ShjDDO [3] | activity / turnover as substrate ([4]; LmbB1) | kSP, O2 (μM^-1 min^-1) at pH 7.5 relative to L-DOPA x 100 for LmbB1 [4] | other results
1 | O=C(O)CCc1cc(O)c(O)cc1Br [6-BromoDHHCA (4), 3-(2-bromo-4,5-dihydroxyphenyl) propanoic acid] | 267 mV | 154 mV | 210.5 mV | 1.43 | 113 mV | 195 mV | 59 mV | 127 mV | 1.21 | 136 mV | 63% | 8.36 ± 0.07 | 95% | 1.5 ± 0.1 sec^–1 | 15.8 ± 1.0 μM^–1 min^–1 | 9.8 ± 1.9 μM^–1 min^–1 | measurable activity | ~11% | measurable activity | 4% | k SP,O2 compared with DHHCA ([3]; ShjDDO active site): equivalent to DHHCA (3) within error; K M weaker than DHHCA [3, 7]: 2 fold; k cat faster than DHHCA [3, 7]: 2 fold; K M tighter than DHHCA ([4]; LmbB1, ratio to DHHCA): 4.5 fold; k SP,O2 slower than DHHCA [4, 8]: more than 5 fold; k cat slower than DHHCA [4, 8]: more than 10 fold; kcat at 22 °C and 100% O2 saturation [4]: 1.6 × 10^–1 ± 4.6 × 10 ^–3 sec^–1; kSP,O2 × 10^2 at 22 °C [4]: 3.5 ± 0.5 μM^–1 min^–1; kSP catechol × 10^2 at 22 °C [4]: 4.6 ± 0.5 μM^–1 min^–1
2 | O=C(O)CCc1cc(O)c(O)cc1[N+](=O)[O-] [6-NitroDHHCA (6), 3-(4,5-dihydroxy-2-nitrophenyl) propanoic acid] | 444 mV | – | – | – | – | 288 mV | – | – | – | – | – | 6.94 ± 0.06 | – | – | – | – | no turnover was detected; also recorded: did not undergo turnover | – | no turnover was detected; also recorded: did not undergo turnover | – | –
3 | O=C(O)CCc1ccc(O)c(O)c1 [DHHCA (3), 3,4-dihydroxyhydrocinnamic acid] | 388 mV | – | 198.5 mV | 2.54 | 379 mV | 333 mV | –95 mV | 119 mV | 1.30 | 428 mV | 59% | 8.87 ± 0.12 | 101% | 6.7 × 10^–1 ± 5.0 × 10 ^–2 sec^–1 | 17.7 ± 2.6 μM^–1 min^–1 | 9.5 ± 2.3 μM^–1 min^–1 | measurable activity | 13% | measurable activity | 23% | productive formation of EI (k 6) faster than the rate of inactivation (k 7) [5]: ~40 times; kcat at 22 °C and 100% O2 saturation [4]: 2.1 ± 0.2 sec^–1; kSP,O2 × 10^2 at 22 °C [4]: 19.2 ± 3.2 μM^–1 min^–1; kSP catechol × 10^2 at 22 °C [4]: 13.4 ± 2.5 μM^–1 min^–1
4 | NCCc1cc(O)c(O)cc1Br [Compound 6-bromoDA, 6-bromodopamine, reference compound] | – | – | – | – | – | – | – | – | – | – | 77% | – | 92% | – | – | – | – | 9% | – | 27% | pK a value of dopamine counterpart [6]: 8.09 ± 0.03
5 | NCCc1cc(O)c(O)cc1[N+](=O)[O-] [dopamine counterpart of 6-NitroDHHCA (6), 6-nitrodopamine] | – | – | – | – | – | – | – | – | – | – | – | – | – | – | – | – | – | – | – | – | pK a value of dopamine counterpart [6]: 6.23 ± 0.03
6 | N[C@@H](Cc1ccc(O)c(O)c1)C(=O)O [L-DOPA (1), L-3,4-dihydroxyphenylalanine] | 362 mV | 101 mV | 231.5 mV | 5.90 | 261 mV | 315 mV | – | – | – | – | – | 8.81 ± 0.19 | 100% | – | – | – | – | 100% | – | 100% | –
